# Data: patent publication US20180200315A1, “CANNABINOID AND CAFFEINE EMULSIFICATIONS” (priority 2016, published 2018)
# Experiment: Emulsifier experiments with coconut oils and water (Example 2)
# Type: physicochemical
# Conditions: tested as emulsifying agents; solid and liquid (MCT) coconut oils
# Procedure: Several experiments were run using several different emulsifiers and combinations of different coconut oils: solid and liquid (MCT). (Note: liquid MCT is coconut oil that has medium chain triglyceride). Guar gum, lecithin, and cyclodextrin were tested as emulsifying agents and provided good results.
substance,measurement,value
cyclodextrin,emulsification of the oil and water,good results
